Measured values reported in patent publication US12116355B2, “Deuterated 1-piperazino-3-phenyl indanes for treatment of schizophrenia” (H. Lundbeck A/S, priority 2011, dated 2024).
Like-named read-outs stand apart in the source and are kept apart here.

Assays:
[1] = Metabolism in pooled human liver microsomes, formation of desmethyl metabolite; format: in vitro ADME
Method: Pooled human liver microsomes (50 donors, from Xenotech) were incubated with 1 μM or 10 μM of compound at 37° C. […] The protein concentration was 0.2 mg/mL and the final volume was 0.5 mL. Following a 10-minute pre-incubation, the reaction was initiated by adding Compound. After 0, 15, 30, 60, 90, 120, and 180 minutes, the reactions were terminated by transferring the subcellular fraction to 0.5 mL of stopping reagent containing internal standard. The incubations were carried out in triplicate. The samples were centrifuged at 4000 g (4° C., 15 min) and the supernatants were analyzed by HPLC-MS/MS. Data were expressed as MS area relative to an internal standard.

[2] = target: recombinant human liver CYP3A4 (Homo sapiens (Human), UniProt P08684); assay: Metabolism by recombinant human liver CYP3A4; format: in vitro ADME
recombinant human liver CYP3A4, sequence (P08684 whole entry): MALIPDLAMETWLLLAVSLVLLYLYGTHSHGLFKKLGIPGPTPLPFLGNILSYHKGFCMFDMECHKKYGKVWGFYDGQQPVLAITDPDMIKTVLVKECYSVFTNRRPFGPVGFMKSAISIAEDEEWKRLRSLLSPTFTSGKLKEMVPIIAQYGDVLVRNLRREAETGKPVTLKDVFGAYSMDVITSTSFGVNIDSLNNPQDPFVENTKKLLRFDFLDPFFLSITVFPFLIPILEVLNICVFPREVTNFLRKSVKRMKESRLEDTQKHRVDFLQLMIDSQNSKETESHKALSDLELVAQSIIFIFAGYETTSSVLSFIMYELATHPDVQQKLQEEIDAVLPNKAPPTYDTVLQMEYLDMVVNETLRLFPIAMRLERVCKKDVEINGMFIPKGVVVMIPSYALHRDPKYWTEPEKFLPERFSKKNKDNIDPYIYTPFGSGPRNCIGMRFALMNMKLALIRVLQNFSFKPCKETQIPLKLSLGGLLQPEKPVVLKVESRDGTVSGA
Method: (§1) The protein concentration was 0.5 mg/mL and the final volume was 0.5 mL. […] After 0, 15, 30, 60, 90, 120, and 180 minutes, the reactions were terminated by transferring the subcellular fraction to 0.5 mL of stopping reagent containing internal standard. The incubations were carried out in triplicate. The samples were centrifuged at 4000×g (4° C., 15 minutes) and the supernatants were analyzed by HPLC-MS/MS. Data were expressed as MS area relative to an internal standard.

[3] = target: recombinant human liver CYP2C19 (Homo sapiens (Human), UniProt P33261); assay: Metabolism by recombinant human liver CYP2C19; format: in vitro ADME
recombinant human liver CYP2C19, sequence (P33261 whole entry): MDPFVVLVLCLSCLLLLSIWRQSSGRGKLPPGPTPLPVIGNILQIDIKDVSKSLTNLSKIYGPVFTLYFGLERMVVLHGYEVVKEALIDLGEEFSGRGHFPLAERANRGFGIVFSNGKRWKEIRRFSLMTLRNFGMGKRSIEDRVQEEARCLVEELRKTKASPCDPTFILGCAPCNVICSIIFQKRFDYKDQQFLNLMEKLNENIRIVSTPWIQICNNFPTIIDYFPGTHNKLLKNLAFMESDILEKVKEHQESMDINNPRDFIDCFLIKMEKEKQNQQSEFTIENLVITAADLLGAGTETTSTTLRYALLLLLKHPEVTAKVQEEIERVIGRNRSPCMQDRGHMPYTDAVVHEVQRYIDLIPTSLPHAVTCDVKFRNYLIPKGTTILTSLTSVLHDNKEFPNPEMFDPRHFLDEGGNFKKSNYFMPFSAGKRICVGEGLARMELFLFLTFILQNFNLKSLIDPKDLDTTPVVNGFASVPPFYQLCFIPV
Method: as §1

[4] = test system: D2 receptors in rat brain; assay: In vivo binding to D2 receptors in rat brain; settings: 20 mg/kg subcutaneous 30 minutes before [3H]-raclopride i.v.
Method: Description of In Vivo Binding to D2 Receptors in Rat Brain
Briefly, 6 rats (male Wistar, 180-200 g) were treated with 20 mg/kg test compound subcutaneous 30 minutes before receiving 9.4 micro Ci [^3H]-raclopride intravenously via the tail vein.
15 minutes after the injection of the radio ligand, the animals were killed by cervical dislocation, the brain quickly removed, and striatum and cerebellum dissected out and homogenized in 5 mL (cerebellum in 20 mL) ice-cold buffer (50 mM K3PO4, pH 7.4). 1.0 mL of the homogenate was filtered through 0.1% PEI-soaked Whatman GF/C filters. This was completed within 60 seconds subsequent to the decapitation. Filters were washed 2 times with 5 mL ice-cold buffer and counted in a scintillation counter. A group of vehicle-treated animals was used to determine [^3H]-raclopride total binding in striatum and non-specific binding in cerebellum.

[5] = test system: PCP-induced hyperactivity in mice; assay: PCP-induced hyperactivity in mice; settings: hydrogen tartrate s.c. 30 minutes before test, PCP 2.3 mg/kg s.c.
Method: Locomotor activity was measured for 60 minutes as number of beam breaks (counts). Eight-to-16 male mice were used in each group. ##indicates P<0.01 versus Vehicle-PCP (One-way analysis of variance [ANOVA] followed by Bonferroni post-hoc test).

[6] = Human pharmacokinetic multiple oral dose study; format: in vivo; settings: male, healthy young men, 3 mg daily oral for 18 days, plasma after last dose, read-out: mean AUC 0-24 of parent compound
Source text: The pharmacokinetics of Compound (IV) and Compound (X) were compared in a multiple oral dose study in healthy young men.

[7] = pKa determination by potentiometric titration / Dip Probe Absorption Spectroscopy; format: physicochemical; settings: ion strength 0.16, extrapolated to zero MeOH
Method: pKa was determined by potentiometric titration of the base at ion strength 0.16 using MeOH as co-solvent. Three series of three repeated titrations on the same solution of the sample was performed in a conventional way from low to high pH and a difference curve was created from each of these titrations by blank subtraction. The apparent pKa-value at each MeOH:water ratio is calculated from the difference curves, and the pKa value is determined by extrapolation to zero MeOH content.
The lower pKa was determined by Dip Probe Absorption Spectroscopy detection during titration of the base at ion strength 0.16 using MeOH as co-solvent. The change in absorption spectra as a function of ionisation is used to calculate the pKa value. Two series of three repeated titrations on the same solution of the sample was performed from low to high pH, with a photo diode array as additional detection. The apparent pKa value at each MeOH:water ratio is calculated by target factor analysis on the change in absorption spectra, and the pKa value is determined by extrapolation to zero MeOH content.

[8] = Log P / log D profile by titration with n-octanol; format: physicochemical; settings: n-octanol:water, 27° C., ion strength approximately 0.16
Method: A series of three repeated titrations on the same sample in solution was performed, from low to high pH. The first titration was performed with a small amount of n-octanol present in the solution, the second and third with increasing amounts.
A difference curve was created from each of these titrations by blank subtraction, and from these difference curves, the apparent pKa values (poKa) were calculated. From the change in the apparent pKa values (ΔpKa) with the n-octanol:water ratio combined with the real pKa value, the Log P value was calculated and the Log D profile was derived.

[9] = Solubility of salts of Compound (IV); format: physicochemical
[10] = test system: catalepsy in rats; assay: Catalepsy test in rats; format: in vivo, rats (male Sprague Dawley); settings: tartrate s.c. 30 minutes before test
Source text: Catalepsy is thought to reflect drug-induced suppression of the ability to initiate a behavioral response. The catalepsy test in rats is a common and widely used preclinical screening test for the EPS liability of potentially antipsychotic drugs. Although catalepsy is usually assessed following acute drug administration, the test has proven to be a reliable predictor for the propensity of an antipsychotic drug to induce EPS (that is, pseudo parkinsonism, dystonia) in humans (Elliott, P. J. et al, J. Neural. Transm. Park. Dis. Dement. Sect. 1990, 2, 79-89; herein incorporated by reference in its entirety). […] The minimal effective dose inducing catalepsy was 10 mg/kg (FIG. 17). […] Eight male Sprague Dawley rats were used in each group. # indicates P<0.05, ## indicates P<0.01 versus vehicle (One-way ANOVA followed by Bonferroni post-hoc test). This dose is 100 times higher than the dose indicating antipsychotic activity (FIG. 16).

[11] = test system: cryopreserved dog hepatocytes; assay: Metabolism in cryopreserved dog hepatocytes, formation of desmethyl metabolite; format: in vitro ADME, dog (male Beagle dog); settings: for amount of desmethyl metabolite (Compound (XI)) produced, versus Compound (X): cryopreserved dog hepatocytes
Method: Cryopreserved dog (male Beagle dog) hepatocytes (1 million cells/mL in suspension, 50 μL/well) were pre-incubated for 15 minutes in a 96-well plate at 37° C. water bath in DMEM high glucose buffered with 1 M HEPES.

[12] = test system: D1; settings: in vitro, J. Med. Chem. 1995, 38, 4380-4392; cited from earlier work
[13] = test system: catalepsy in rats; settings: fumarate salt, J. Med. Chem. 1995, 38, 4380-4392; cited from earlier work
[14] = test system: 5-HT2; settings: J. Med. Chem. 1995, 38, 4380-4392; cited from earlier work
[15] = test system: D2; settings: in vitro, J. Med. Chem. 1995, 38, 4380-4392; cited from earlier work

amount of desmethyl metabolite produced, versus Compound (X) ([1]; 1 μM)	amount of desmethyl metabolite produced, versus Compound (X) ([1]; 10 μM)	amount of desmethyl metabolite produced, versus Compound (X) ([2]; 1 mM (so in the source))	amount of desmethyl metabolite produced, versus Compound (X) ([2]; 10 mM (so in the source))	amount of desmethyl metabolite produced, versus Compound (X) ([3]; 1 μM)	amount of desmethyl metabolite produced, versus Compound (X) ([3]; 10 μM)	AUC(0-t) [6]	Compound	occupancy of D2 receptors by in vivo binding [4]	other results
lower	lower	lower	lower	Corresponding results	lower		[2H]c1c([2H])c([2H])c([C@@H]2C[C@@H](N3CCN(C)C(C)(C)C3)c3cc(Cl)ccc32)c([2H])c1[2H] (single isomer, unassigned) [Compound (II)]	75%	
lower	lower	lower	lower	lower	Corresponding results	104 ng·h/mL	[2H]c1c([2H])c([2H])c([C@@H]2C[C@@H](N3CCN(C([2H])([2H])[2H])C(C)(C)C3)c3cc(Cl)ccc32)c([2H])c1[2H] (single isomer, unassigned) [Compound (IV)]	70%	pKa ([7]; Dip Probe Absorption Spectroscopy, read-out: lower pKa): 2.5 ± 0.1; pKa ([7]; potentiometric titration, read-out: high pKa): 8.9 ± 0.1; logP [8]: 5.4 ± 0.4; logD ([8]; pH 7.4, read-out: Log D7.4): 3.9 ± 0.4; solubility ([9]; pH 7.6): 100 µg/mL; pH of solubility solution ([9]; salts of Compound (IV)): 7.6; induction of catalepsy [10]: dose-dependently induced catalepsy; minimal effective dose inducing catalepsy [10]: 10 mg/kg

The next lines start with the molecule.

Compound	amount of desmethyl metabolite produced, versus Compound (X) ([1]; 1 μM)	amount of desmethyl metabolite produced, versus Compound (X) ([1]; 10 μM)	amount of desmethyl metabolite produced, versus Compound (X) ([2]; 1 mM (so in the source))	amount of desmethyl metabolite produced, versus Compound (X) ([2]; 10 mM (so in the source))	amount of desmethyl metabolite produced, versus Compound (X) ([3]; 1 μM)	amount of desmethyl metabolite produced, versus Compound (X) ([3]; 10 μM)	AUC(0-t) [6]	occupancy of D2 receptors by in vivo binding [4]	other results
CN1CCN([C@@H]2C[C@@H](c3ccccc3)c3ccc(Cl)cc32)CC1(C)C (single isomer, unassigned) [Compound (IV)]									reversal of PCP-induced hyperactivity (locomotor activity) [5]: dose-dependently reverses
[2H]C([2H])([2H])N1CCN([C@@H]2C[C@@H](c3ccccc3)c3ccc(Cl)cc32)CC1(C)C [Compound (I), 4-((1R,3S)-6-chloro-3-phenyl-indan-1-yl)-1-methyl-d3-2,2-dimethyl-piperazine]									amount of desmethyl metabolite (Compound (XI)) produced, versus Compound (X) ([11]; 0.1 μM): lower; amount of desmethyl metabolite (Compound (XI)) produced, versus Compound (X) ([11]; 1 μM): lower; decrease in formation of the desmethyl metabolite (Compound (XI)) in comparison to Compound (X) ([11]; dog hepatocytes): approximately 50%
CN1CCN([C@@H]2C[C@@H](c3ccccc3)c3ccc(Cl)cc32)CC1(C)C [Compound (X), 4-((1R,3S)-6-Chloro-3-phenyl-indan-1-yl)-1,2,2-trimethyl-piperazine]							98 ng·h/mL		D1 antagonism [12]: potent D1/D2 antagonist; catalepsy in rats [13]: does not induce catalepsy; 5-HT2 antagonism [14]: potent 5-HT2 antagonist; D2 antagonism [15]: potent D1/D2 antagonist
